As a reminder, the IC50 is the concentration needed to halve the response being measured. A low value points to greater potency in that assay.

Here are results for 4 compounds from ChEMBL document CHEMBL1127625, “Modulation of the kynurenine pathway in search for new neuroprotective agents. Synthesis and preliminary evaluation of (m-nitrobenzoyl)alanine, a potent inhibitor of kynurenine-3-hydroxylase” (J Med Chem, 1994).

SMILES strings stand for the structures.

The target of series [1] is T1, Kynureninase (Rattus norvegicus, UniProt P70712).
T1 sequence (P70712 whole entry): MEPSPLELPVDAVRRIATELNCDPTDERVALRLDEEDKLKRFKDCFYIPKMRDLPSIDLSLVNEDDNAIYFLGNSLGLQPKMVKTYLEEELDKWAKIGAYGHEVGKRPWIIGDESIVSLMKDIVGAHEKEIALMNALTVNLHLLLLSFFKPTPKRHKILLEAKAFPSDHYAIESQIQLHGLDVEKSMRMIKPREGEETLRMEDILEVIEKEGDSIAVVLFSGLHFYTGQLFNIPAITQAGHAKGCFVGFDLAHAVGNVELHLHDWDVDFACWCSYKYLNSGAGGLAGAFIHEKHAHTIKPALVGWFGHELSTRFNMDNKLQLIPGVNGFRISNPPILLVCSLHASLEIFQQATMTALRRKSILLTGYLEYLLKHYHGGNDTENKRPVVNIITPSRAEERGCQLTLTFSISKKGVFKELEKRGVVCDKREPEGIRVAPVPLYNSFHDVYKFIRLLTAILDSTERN
The series is described as follows: Ability to inhibit kynureninase was determined in a competitive inhibition assay.

For series [2], the target named is Kynurenine 3-monooxygenase (Rattus norvegicus, UniProt O88867). The series is described as follows: Ability to inhibit kynurenine-3-hydroxylase was determined in a competitive inhibition assay.
Sequence of Kynurenine 3-monooxygenase (O88867 whole entry): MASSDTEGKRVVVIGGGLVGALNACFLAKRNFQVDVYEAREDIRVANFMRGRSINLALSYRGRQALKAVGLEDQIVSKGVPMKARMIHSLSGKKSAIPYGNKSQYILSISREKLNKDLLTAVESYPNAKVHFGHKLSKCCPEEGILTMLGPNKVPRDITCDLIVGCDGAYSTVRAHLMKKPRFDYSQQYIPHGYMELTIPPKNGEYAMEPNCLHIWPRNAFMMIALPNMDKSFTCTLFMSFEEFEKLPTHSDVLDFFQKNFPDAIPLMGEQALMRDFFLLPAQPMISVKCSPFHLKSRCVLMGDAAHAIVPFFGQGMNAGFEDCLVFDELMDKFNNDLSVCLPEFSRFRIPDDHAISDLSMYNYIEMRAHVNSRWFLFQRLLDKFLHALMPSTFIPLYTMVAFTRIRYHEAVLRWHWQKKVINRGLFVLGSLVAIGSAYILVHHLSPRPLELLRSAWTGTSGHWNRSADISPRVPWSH
For series [3], the target named is Kynurenine 3-monooxygenase (Rattus norvegicus) (UniProt O88867). As to the kind of experiment: Differences in inhibition of kynurenine-3-hydroxylase by m-NBA versus compound is determined.
Sequence of Kynurenine 3-monooxygenase (Rattus norvegicus) (O88867 whole entry, looked up): as the sequence (O88867 whole entry) above
Series [4] relates to Mus musculus. The series is described as follows: Sedative and anticonvulsant effects at dose 200 mg/kg, administered intraperitoneally; value expressed as tonic /tested =1/13. It counts as functional. The following applies: route intraperitoneal.
For series [5], the system named is Mus musculus. The series is described as follows: Sedative and anticonvulsant effects at dose 400 mg/kg, administered intraperitoneally; value expressed as tonic /tested =2/6. The following applies: route intraperitoneal. It counts as functional.
Series [6] concerns Rattus norvegicus. As to the kind of experiment: Effect on […] (KYN) content in rat blood at dose 400 mg/kg administered intraperitoneally. It counts as functional. To be noted: route intraperitoneal.
Series [7] concerns Rattus norvegicus. As to the kind of experiment: Effect on […] (KYN) content in rat liver at dose 400 mg/kg administered intraperitoneally. It counts as functional. The following applies: route intraperitoneal.
Series [8] concerns Mus musculus. As to the kind of experiment: Sedative and anticonvulsant effects at dose 400 mg/kg, administered intraperitoneally; value expressed as death /tested =2/6. It counts as organism-based. Further details: dose 400 mg/kg, route intraperitoneal. To be noted: in vivo, ip.
Series [9] deals with Mus musculus. The series is described as follows: Sedative and anticonvulsant effects at dose 200 mg/kg, administered intraperitoneally; value expressed as clonic /tested =6/13. It counts as functional. To be noted: route intraperitoneal.
Series [10] has as its system Mus musculus. The series is described as follows: Sedative and anticonvulsant effects at dose 400 mg/kg, administered intraperitoneally; value expressed as clonic /tested =4/6. To be noted: route intraperitoneal. It counts as functional.
The subject of series [11] is Rattus norvegicus. The series is described as follows: Effect on kynurenic acid (KYNA) content in rat brain at dose 400 mg/kg administered intraperitoneally. It counts as functional. The following applies: route intraperitoneal.
Series [12] concerns Rattus norvegicus. As to the kind of experiment: Effect on kynurenic acid (KYNA) content in rat liver at dose 400 mg/kg administered intraperitoneally. It counts as functional. The following applies: route intraperitoneal.
Series [13] has as its system Rattus norvegicus. The series is described as follows: Effect on […] (KYN) content in rat brain at dose 400 mg/kg administered intraperitoneally. The following applies: route intraperitoneal. It counts as functional.
The test system of series [14] is Rattus norvegicus. As to the kind of experiment: Effect on kynurenic acid (KYNA) content in rat blood at dose 400 mg/kg administered intraperitoneally. It counts as functional. To be noted: route intraperitoneal.
The subject of series [15] is Mus musculus. As to the kind of experiment: Sedative and anticonvulsant effects at dose 200 mg/kg, administered intraperitoneally; value expressed as death /tested =0/13. It counts as ADME, organism-based. Further details: dose 200 mg/kg, route intraperitoneal. The following applies: in vivo, ip.

Regarding `NC(CC(=O)c1ccccc1[N+](=O)[O-])C(=O)O` (configuration not stated) [(ortho-nitrobenzoyl)alanine], the values for the half-maximal inhibitory concentration (IC50) in series [1] and in [2] were 100 µM and 2000 µM, respectively. In addition, the -Log IC50/IC50 in series [3] was 2.94.
The like results for `NC(CC(=O)c1ccc([N+](=O)[O-])cc1)C(=O)O` (configuration not stated) were, in that order, 900 µM, 300 µM and 2.52.
With `NC(CC(=O)c1cccnc1)C(=O)O` (configuration not stated) [NICOTINOYLALANINENAL], the IC50 in series [1] was 800 µM; in series [2] it was 900 µM. Moreover, in series [3], the -Log IC50/IC50 is 2.89.
In [1], `NC(CC(=O)c1cccc([N+](=O)[O-])c1)C(=O)O` (configuration not stated) registered an IC50 of 100 µM. In addition, the Tonic came out at 1 in [4] and 2 in [5]. In addition, the Effect in series [6] was 16000 pmol/g; in [7], 4000 pmol/g; in [11] it was 150 pmol/g; in [12] it was 250 pmol/g; in series [13], 4000 pmol/g; in series [14], 120 pmol/g. For the same compound, the figures for the Death in series [8] and in series [15] were 2 and 0, respectively. The Clonic is 6 in [9] and 4 in series [10].
